The source of these data is ChEMBL document CHEMBL2010643 (Bioorg Med Chem Lett, 2012).

Active and inactive are the calls of the source. The rule behind the calls is not given here.

Test [1] concerns Mus musculus. The experiment in a line: Inhibition of LRRK2 phosphorylation at Ser910 in C57BL/6 mouse spleen at 100 mg/kg, po administered for 8 hrs followed by 2 hrs dosing. In kind it is functional, organism-based. Details: dose 100 mg/kg.
Test [2] addresses T1, Leucine-rich repeat serine/threonine-protein kinase 2 (Homo sapiens, UniProt Q5S007). Kind of test: Inhibition of wild type LRRK2 phosphorylation at Ser935 in human lymphoblastoid cells at 0.03 to 3 uM after 90 mins by Western blot analysis. In kind it is cell-based. (Immunoblotting shows a protein as a band on a membrane.)
The subject of test [3] is Mus musculus. Kind of test: Inhibition of LRRK2 phosphorylation at Ser935 in C57BL/6 mouse kidney at 100 mg/kg, po administered for 8 hrs followed by 2 hrs dosing. In kind it is functional, organism-based. More on the design: dose 100 mg/kg.
Test [4] has as its target T1, Leucine-rich repeat serine/threonine-protein kinase 2. As to conditions: HEK293; 0.03 to 3 uM.
Description: Inhibition of wild-type LRRK2 phosphorylation at Ser910 expressed in HEK293 cells at 0.03 to 3 uM after 90 mins by immunoblot analysis
The target is the same in test [5]. Kind of test: Inhibition of wild-type LRRK2 expressed in HEK293 cells using nictide and [gamma32]ATP as substrate.
For test [6] the target is unchanged. The experiment in a line: Inhibition of wild type LRRK2 phosphorylation at Ser910 in human lymphoblastoid cells at 0.03 to 3 uM after 90 mins by Western blot analysis. It counts as cell-based.
Test [7] concerns Mus musculus. Kind of test: Inhibition of LRRK2 phosphorylation at Ser935 in C57BL/6 mouse spleen at 100 mg/kg, po administered for 8 hrs followed by 2 hrs dosing. It counts as functional, organism-based. Details: dose 100 mg/kg.
The test system of test [8] is Mus musculus. Kind of test: Inhibition of LRRK2 phosphorylation at Ser910 in C57BL/6 mouse kidney at 100 mg/kg, po administered for 8 hrs followed by 2 hrs dosing. In kind it is functional, organism-based. More on the design: dose 100 mg/kg.
The target of test [9] is T1, Leucine-rich repeat serine/threonine-protein kinase 2. As to conditions: HEK293; 0.03 to 3 uM. The source holds these as a separate data set.
Description: Inhibition of wild-type LRRK2 phosphorylation at Ser935 expressed in HEK293 cells at 0.03 to 3 uM after 90 mins by immunoblot analysis

T1 sequence (Q5S007 whole entry): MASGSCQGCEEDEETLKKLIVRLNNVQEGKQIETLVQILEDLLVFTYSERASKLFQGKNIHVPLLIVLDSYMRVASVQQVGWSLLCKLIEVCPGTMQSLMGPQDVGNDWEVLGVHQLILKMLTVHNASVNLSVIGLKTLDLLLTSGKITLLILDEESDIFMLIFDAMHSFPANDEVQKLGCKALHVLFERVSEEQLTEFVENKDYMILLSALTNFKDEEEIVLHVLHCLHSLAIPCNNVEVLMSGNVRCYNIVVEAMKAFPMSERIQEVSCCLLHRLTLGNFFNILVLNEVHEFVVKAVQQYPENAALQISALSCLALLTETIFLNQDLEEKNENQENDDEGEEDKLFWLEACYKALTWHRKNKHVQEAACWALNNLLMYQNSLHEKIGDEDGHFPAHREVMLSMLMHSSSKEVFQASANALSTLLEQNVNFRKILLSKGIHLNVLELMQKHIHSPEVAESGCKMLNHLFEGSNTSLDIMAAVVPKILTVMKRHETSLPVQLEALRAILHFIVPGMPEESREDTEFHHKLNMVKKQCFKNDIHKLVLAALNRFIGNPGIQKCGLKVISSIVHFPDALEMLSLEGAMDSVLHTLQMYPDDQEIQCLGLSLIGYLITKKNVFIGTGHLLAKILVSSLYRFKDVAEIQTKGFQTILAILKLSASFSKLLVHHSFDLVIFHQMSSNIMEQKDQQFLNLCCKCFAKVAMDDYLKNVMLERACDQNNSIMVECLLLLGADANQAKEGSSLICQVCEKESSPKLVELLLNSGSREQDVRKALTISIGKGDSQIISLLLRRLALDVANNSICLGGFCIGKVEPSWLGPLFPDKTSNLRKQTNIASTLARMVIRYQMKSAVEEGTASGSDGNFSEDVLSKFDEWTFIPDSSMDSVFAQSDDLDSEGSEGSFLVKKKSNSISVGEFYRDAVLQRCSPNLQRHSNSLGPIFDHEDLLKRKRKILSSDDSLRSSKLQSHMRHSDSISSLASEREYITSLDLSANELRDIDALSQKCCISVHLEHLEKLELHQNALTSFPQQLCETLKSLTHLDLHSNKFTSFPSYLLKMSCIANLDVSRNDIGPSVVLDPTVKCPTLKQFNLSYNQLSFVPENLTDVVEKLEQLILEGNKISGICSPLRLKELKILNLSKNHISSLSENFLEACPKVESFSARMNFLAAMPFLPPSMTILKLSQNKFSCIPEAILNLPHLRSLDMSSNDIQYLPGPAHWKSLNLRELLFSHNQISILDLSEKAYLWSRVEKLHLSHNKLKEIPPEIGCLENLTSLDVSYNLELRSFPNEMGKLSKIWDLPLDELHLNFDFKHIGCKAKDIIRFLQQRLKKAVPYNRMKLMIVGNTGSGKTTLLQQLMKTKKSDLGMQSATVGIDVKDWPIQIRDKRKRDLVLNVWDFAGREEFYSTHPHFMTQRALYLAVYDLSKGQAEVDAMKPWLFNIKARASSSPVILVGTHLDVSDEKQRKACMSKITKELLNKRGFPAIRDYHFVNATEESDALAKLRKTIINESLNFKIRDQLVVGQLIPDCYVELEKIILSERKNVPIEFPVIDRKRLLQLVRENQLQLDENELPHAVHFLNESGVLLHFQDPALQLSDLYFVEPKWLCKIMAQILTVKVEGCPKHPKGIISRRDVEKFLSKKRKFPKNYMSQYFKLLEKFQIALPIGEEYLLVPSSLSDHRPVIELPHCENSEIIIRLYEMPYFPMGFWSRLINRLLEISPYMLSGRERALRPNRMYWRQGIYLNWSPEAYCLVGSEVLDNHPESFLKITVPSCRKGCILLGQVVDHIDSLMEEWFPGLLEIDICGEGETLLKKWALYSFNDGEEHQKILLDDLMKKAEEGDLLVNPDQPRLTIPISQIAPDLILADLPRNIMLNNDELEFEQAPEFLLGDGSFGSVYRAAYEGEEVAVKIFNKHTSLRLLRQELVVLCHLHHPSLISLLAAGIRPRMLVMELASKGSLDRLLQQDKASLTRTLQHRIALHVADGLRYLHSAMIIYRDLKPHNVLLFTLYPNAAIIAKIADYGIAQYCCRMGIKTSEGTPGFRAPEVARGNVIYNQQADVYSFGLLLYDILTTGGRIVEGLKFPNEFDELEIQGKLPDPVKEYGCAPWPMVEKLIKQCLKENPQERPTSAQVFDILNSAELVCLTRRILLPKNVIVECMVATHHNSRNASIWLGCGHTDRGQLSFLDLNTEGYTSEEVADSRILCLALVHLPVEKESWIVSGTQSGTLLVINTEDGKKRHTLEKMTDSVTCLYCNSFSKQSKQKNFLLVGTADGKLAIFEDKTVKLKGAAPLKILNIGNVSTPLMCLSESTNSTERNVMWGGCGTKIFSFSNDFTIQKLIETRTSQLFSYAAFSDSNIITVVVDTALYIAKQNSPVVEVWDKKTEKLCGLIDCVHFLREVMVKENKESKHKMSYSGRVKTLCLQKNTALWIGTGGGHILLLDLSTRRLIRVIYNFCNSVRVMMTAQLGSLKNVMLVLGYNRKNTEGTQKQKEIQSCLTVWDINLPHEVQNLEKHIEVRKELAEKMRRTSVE

In the case of `COc1cc(C(=O)N2CCC(N3CCN(C)CC3)CC2)ccc1Nc1ncc2c(n1)N(C)c1ccccc1C(=O)N2C`, the inhibition result in [1], in test [2], in test [3], in test [4], in test [6] and in test [7] was “Active” throughout. Further, the inhibition entry in test [8] and in [9] was “Active” throughout. This compound returned an IC50 in test [5] of 13 nM.

The term IC50 denotes the concentration that inhibits the measured activity by half.
